From patent US4124766A, “Substituted 3-(4-imidazolylmethylene)carbazic and thiocarbazic acid esters” (American Cyanamid Company, priority 1977, dated 1978)

What was measured:
[1] = test system: mouse skin PDE (cyclic-AMP phosphodiesterase); assay: Mouse skin phosphodiesterase (PDE) inhibition test (A); assay type: biochemical, mouse (hairless mice); design: key to Mouse Skin Phosphodiesterase (A): Active: A compound is considered active if it inhibits more than theophylline, that is, to 50% of control at 1 mM concentration of compound, or to 80% of control for 0.05 mM concentration of compound; details: for Mouse Skin Phosphodiesterase (A): final concentration of test compound 10 ug./ml, active = inhibits more than theophylline
[2] = test system: monkey lung cyclic AMP phosphodiesterase; assay: Monkey lung phosphodiesterase inhibition test (B); assay type: biochemical, African green monkey; design: key to Monkey Lung Phosphodiesterase (B): Active: A compound is considered active if it inhibits more than theophylline, that is, to 50% of control at 1 mM concentration of compound, or to 80% of control for 0.05 mM concentration of compound; details: for Monkey Lung Phosphodiesterase (B): test compound usually 1 mM or 0.1 mM, active = inhibits more than theophylline
Experimental: Lung parenchyma of African green monkeys is homogenized in a Waring blender and centrifuged at 40,000 × gravity for 20 minutes. The supernatant is brought to 70% saturation of ammonium sulfate, centrifuged and the pellet redissolved and dialysed, before aliquoting and storage at -20° C.
Phosphodiesterase is assayed by the method of Thompson and Appleman, ibid. An assay tube contains a 0.4 ml. solution of the following: 45 mM tris-HCl buffer, pH 7.4, 6.25 mM MgCl2, 0.1 mM dithioerythritol, 10^-6 M cyclic AMP, 0.1 uCi [^3 H]-cyclic AMP, and test compound at the desired concentration (usually 1 mM or 0.1 mM). Compounds not readily soluble in water are dissolved at 40 times the desired concentration in methanol, and diluted 20 times with water. If the compound is not dissolved at this time, it is suspended by sonication before being diluted 1:2 into the assay tube. In this case the activity of the enzyme in the presence of the compound is compared to a solvent control (2.5% methanol), although the solvent alone has negligible effect. The reaction is initiated by addition of enzyme and proceedes at 25° C. for 20 minutes. It is terminated by incubation at 100° C. for 2 minutes. The tubes are cooled to 25° C., 0.8 ug of 5'-nucleotidase (Crotolus adamantus toxin) is added to each and the tubes incubated at 25° C. for 30 minutes. A one milliliter suspension of Bio-Rad Labs. AGIX8® (about 0.5 ml. of settled resin) is added, the tubes centrifuged at 900 × gravity for 10 minutes and an aliquot of supernatant removed for scintillation counting. The inhibition by the test compound is calculated as: [formula] where `compound` is the cpm in the presence of compound, `control` is the cpm in the absence of compound, and `blank` is the cpm in the absence of enzyme. […] For this reason, control tubes which contained [^3 H]-AMP instead of [^3 H]-cyclic AMP are run in parallel. A correction of the apparent phosphodiesterase activity is made for the rare compound which inhibited the hydrolysis of AMP.
A compound is considered active if it inhibits more than theophylline, that is, to 50% of control at 1 mM concentration of compound, or to 80% of control for 0.05 mM concentration of compound.

SMILES | Mouse Skin Phosphodiesterase (A) [1] | Monkey Lung Phosphodiesterase (B) [2] | phosphodiesterase activity, % of control (theophylline benchmark) ([2]; 1 mM concentration of compound, criterion stated for skin (A) or lung (B)) | phosphodiesterase activity, % of control (theophylline benchmark) ([1]; 0.05 mM concentration of compound, criterion stated for skin (A) or lung (B))
O=c1[nH]ncc2cnc(Cc3ccccc3)n12 [6-Benzyl-imidazo[1,5-d]-as-triazin-4(3H)-one] | Active | – | – | –
CCCOc1ccccc1-c1ncc2cn[nH]c(=O)n12 [6-o-Propoxyphenyl-imidazo[1,5-d]-as-triazin-4(3H)-one] | Active | – | – | –
O=c1[nH]ncc2cnc(-c3ccccc3)n12 [6-Phenyl-imidazo[1,5-d]-as-triazin-4(3H)-one] | Active | – | – | –
Cc1nc(-c2ccccc2)n2c(=S)[nH]ncc12 [8-Methyl-6-phenyl-imidazo[1,5-d]-as-triazine-4(3H)-thione] | Active | – | – | –
Cc1nc(Cc2ccccc2)n2c(=S)[nH]ncc12 [6-Benzyl-8-methyl-imidazo[1,5-d]-as-triazine-4(3H)-thione] | Active | Active | – | –
Cn1c(=O)c2[nH]cnc2n(C)c1=O [theophylline, reference compound] | – | – | 50% | 80%
Cc1nc(Cc2ccccc2)n2c(=O)[nH]ncc12 [6-Benzyl-8-methyl-imidazo[1,5-d]-as-triazin-4(3H)-one] | Active | – | – | –
Cc1ncn2c(=S)[nH]ncc12 [8-Methyl-imidazo[1,5-d]-as-triazine-4(3H)-thione] | Active | – | – | –
CCCc1ncc2cn[nH]c(=S)n12 [6-n-Propyl-imidazo[1,5-d]-as-triazine-4(3H)-thione] | Active | Active | – | –
CCCc1nc(C)c2cn[nH]c(=S)n12 [8-Methyl-6-n-propyl-imidazo[1,5-d]-as-triazine-4(3H)-thione] | Active | Active | – | –
O=c1[nH]ncc2c(Br)nc(-c3ccccc3)n12 [8-Bromo-6-phenyl-imidazo[1,5-d]-as-triazin-4(3H)-one] | Active | Active | – | –
O=c1[nH]ncc2c(Cl)nc(-c3ccccc3)n12 [8-Chloro-6-phenyl-imidazo[1,5-d]-as-triazin-4(3H)-one] | Active | Active | – | –
CC(C)(C)c1ncc2cn[nH]c(=O)n12 [6-tert-Butyl-imidazo[1,5-d]-as-triazin-4(3H)-one] | Active | – | – | –
Cc1nc(C)n2c(=S)[nH]ncc12 [6,8-Dimethyl-imidazo[1,5-d]-as-triazine-4(3H)-thione] | Active | – | – | –
Cc1nc(-c2ccccc2)n2c(=O)[nH]ncc12 [8-Methyl-6-phenyl-imidazo[1,5-d]-as-triazin-4(3H)-one] | Active | Active | – | –
CCCc1ncc2cn[nH]c(=O)n12 [6-n-Propyl-imidazo[1,5-d]-as-triazin-4(3H)-one] | Active | – | – | –
Cc1nc(C)n2c(=O)[nH]ncc12 [6,8-Dimethyl-imidazo[1,5-d]-as-triazin-4(3H)-one] | Active | Active | – | –
Cc1nc(C(C)(C)C)n2c(=O)[nH]ncc12 [6-tert-Butyl-8-methyl-imidazo[1,5-d]-as-triazin-4(3H)-one] | Active | Active | – | –
Cc1ncn2c(=O)[nH]ncc12 [8-Methyl-imidazo[1,5-d]-as-triazin-4(3H)-one] | Active | – | – | –
